Numbering of substitutions follows the chain as printed.

Common to all, as to test: cAMP accumulation
Holding throughout (assay type): cell-based
Settings in all cases: cAMP maximal response, mean ± S.E.M., SEM

One assay deals with T1, hCTR D373A (Homo sapiens, UniProt P30988, D373A).
T1 construct: c-Myc (N); expressed in transfected cells
T1 sequence (P30988 25-474 D373A): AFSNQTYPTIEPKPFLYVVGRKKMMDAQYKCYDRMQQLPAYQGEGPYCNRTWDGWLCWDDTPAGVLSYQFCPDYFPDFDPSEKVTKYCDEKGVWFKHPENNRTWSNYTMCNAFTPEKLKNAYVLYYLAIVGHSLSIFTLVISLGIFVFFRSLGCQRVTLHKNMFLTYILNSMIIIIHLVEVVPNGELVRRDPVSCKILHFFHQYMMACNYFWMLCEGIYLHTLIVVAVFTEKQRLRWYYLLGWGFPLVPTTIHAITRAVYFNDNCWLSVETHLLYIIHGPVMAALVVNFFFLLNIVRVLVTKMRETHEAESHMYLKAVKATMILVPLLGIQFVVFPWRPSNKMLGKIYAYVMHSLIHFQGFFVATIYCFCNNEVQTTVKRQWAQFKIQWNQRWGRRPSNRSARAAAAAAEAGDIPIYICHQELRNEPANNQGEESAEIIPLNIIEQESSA
The procedure, abridged: (§1)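 30 min ligand stimulation with IBMX present; cells seeded overnight beforehand. Ethanol extract, dried at RT.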

For another assay, the target named is T2, hCTR I371A (Homo sapiens, UniProt P30988, I371A).
T2 construct: c-Myc (N); expressed in transfected cells
T2 sequence (P30988 25-474 I371A): T1 sequence (P30988 25-474 D373A) with I347A, A349D
The procedure, abridged: as §1

The next assay concerns the target T3, hCTR P363A (Homo sapiens, UniProt P30988, P363A).
T3 construct: expressed in transfected cells
T3 sequence (P30988 25-474 P363A): T1 sequence (P30988 25-474 D373A) with P339A, A349D
Summed up:
as §1

The target of a further assay is T4, hCTR V293A (Homo sapiens, UniProt P30988, V293A).
T4 construct: c-Myc (N); expressed in transfected cells
T4 sequence (P30988 25-474 V293A): T1 sequence (P30988 25-474 D373A) with V269A, A349D
The procedure, abridged:
as §1

In a further assay the target is T5, hCTR Y299A (Homo sapiens, UniProt P30988, Y299A).
T5 construct: c-Myc (N); expressed in transfected cells
T5 sequence (P30988 25-474 Y299A): T1 sequence (P30988 25-474 D373A) with Y275A, A349D
The procedure, abridged: as §1

With `CC(C)C[C@H](NC(=O)[C@H](CCCCN)NC(=O)CNC(=O)[C@H](CC(C)C)NC(=O)[C@@H](NC(=O)[C@@H]1CSSC[C@H](N)C(=O)N[C@@H](CO)C(=O)N[C@@H](CC(N)=O)C(=O)N[C@@H](CC(C)C)C(=O)N[C@@H](CO)C(=O)N[C@@H]([C@@H](C)O)C(=O)N1)C(C)C)C(=O)N[C@@H](CO)C(=O)N[C@@H](CCC(N)=O)C(=O)N[C@@H](CCC(=O)O)C(=O)N[C@@H](CC(C)C)C(=O)N[C@@H](Cc1c[nH]cn1)C(=O)N[C@@H](CCCCN)C(=O)N[C@@H](CC(C)C)C(=O)N[C@@H](CCC(N)=O)C(=O)N[C@H](C(=O)N[C@@H](Cc1ccc(O)cc1)C(=O)N1CCC[C@H]1C(=O)N[C@@H](CCCNC(=N)N)C(=O)N[C@H](C(=O)N[C@@H](CC(N)=O)C(=O)N[C@H](C(=O)NCC(=O)N[C@@H](CO)C(=O)NCC(=O)N[C@H](C(=O)N1CCC[C@H]1C(N)=O)[C@@H](C)O)[C@@H](C)O)[C@@H](C)O)[C@@H](C)O` [sCT], the Emax on hCTR D373A was 116 ± 8%; on hCTR I371A, 28 ± 2%; on hCTR P363A, 111 ± 9%; at hCTR V293A, 112 ± 11%; on hCTR Y299A, 110 ± 7%.

For the origin of these results see paper PMC5908784, “Extracellular loops 2 and 3 of the calcitonin receptor selectively modify agonist binding and efficacy” (Biochemical Pharmacology, 2018).
